# Measurements published in ChEMBL document CHEMBL1201862, “PubChem BioAssay data set” (2004).
#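 Exposure lasted 48 hours, with cells grown in 96-well plates and compounds tested at five concentrations. Abbreviation: GI50, concentration required for 50% inhibition of growth.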 Active and inactive are the calls of the source. Rule as the data show it: active = GI50 up to about 1.1 µM and inactive = higher.
# What was measured:
# Test in all cases: inhibition of tumour cell growth, NCI panel, 48 h
# OVCAR-4 = test system: OVCAR-4
# SF-539 = test system: SF-539
# CAKI-1 = test system: CAKI-1
# DLD-1 = test system: DLD-1
# HOP-92 = test system: HOP-92
# RXF 631 = test system: RXF 631
# EKVX = test system: EKVX
# SN12C = test system: SN12C
# SK-OV-3 = test system: SK-OV-3
# M14 = test system: M14
# Hs-578T = test system: Hs-578T
# OVCAR-8 = test system: OVCAR-8
# HOP-62 = test system: HOP-62
# SR = test system: SR
# UO-31 = test system: UO-31
# A549 = test system: A549
# LOX IMVI = test system: LOX IMVI
# SF-268 = test system: SF-268
# LXFL 529 = test system: LXFL 529
# NCI/ADR-RES = test system: NCI/ADR-RES
# HCT-116 = test system: HCT-116
# HL-60 = test system: HL-60
# KM12 = test system: KM12
# SF-295 = test system: SF-295
# OVCAR-3 = test system: OVCAR-3
# HT-29 = test system: HT-29
# MDA-MB-435 = test system: MDA-MB-435
# KM-20L2 = test system: KM-20L2
# SNB-78 = test system: SNB-78
# HOP-18 = test system: HOP-18
# DMS-273 = test system: DMS-273
# 786-0 = test system: 786-0
# K562 = test system: K562
# ACHN = test system: ACHN
# NCI-H226 = test system: NCI-H226
# UACC-62 = test system: UACC-62
# M19-MEL = test system: M19-MEL
# XF498 = test system: XF498
# RPMI-8226 = test system: RPMI-8226
# SK-MEL-28 = test system: SK-MEL-28
# MDA-MB-231 = test system: MDA-MB-231
# UACC-257 = test system: UACC-257
# T47D = test system: T47D
# NCI-H460 = test system: NCI-H460
# SW-620 = test system: SW-620
# COLO 205 = test system: COLO 205
# MDA-N = test system: MDA-N
# IGROV-1 = test system: IGROV-1
# CCRF-CEM = test system: CCRF-CEM
# SK-MEL-2 = test system: SK-MEL-2
# BT-549 = test system: BT-549
# SK-MEL-5 = test system: SK-MEL-5
# MOLT-4 = test system: MOLT-4
# SNB-75 = test system: SNB-75
# PC-3 = test system: PC-3
# NCI-H522 = test system: NCI-H522
# MCF7 = test system: MCF7
# OVCAR-5 = test system: OVCAR-5
# TK-10 = test system: TK-10
# HCT-15 = test system: HCT-15
# RXF 393 = test system: RXF 393
# Malme-3M = test system: Malme-3M
# DMS-114 = test system: DMS-114
# NCI-H23 = test system: NCI-H23
# DU-145 = test system: DU-145
# SNB-19 = test system: SNB-19
# A498 = test system: A498
# U-251 = test system: U-251
# HCC 2998 = test system: HCC 2998
compound,measurement,setting,value
COC1C(N)C(OC2C(Oc3cccc4c(O)c5c(=O)oc6ccc(C)c7c(=O)oc(c34)c5c67)OC(C)C(O)C2(C)O)OC(C)C1O (centres undefined),GI50,OVCAR-4,405 nM (active)
same,GI50,SF-539,< 15.4 nM (active)
same,GI50,CAKI-1,15.9 nM (active)
same,GI50,DLD-1,20.6 nM (active)
same,GI50,HOP-92,23.1 nM (active)
same,GI50,RXF 631,35.1 nM (active)
same,GI50,EKVX,156 nM (active)
same,GI50,SN12C,17.8 nM (active)
same,GI50,SK-OV-3,114 nM (active)
same,GI50,M14,78.9 nM (active)
same,GI50,Hs-578T,< 10 nM (active)
same,GI50,OVCAR-8,15.4 nM (active)
same,GI50,HOP-62,42.8 nM (active)
same,GI50,SR,< 215 nM (active)
same,GI50,UO-31,74.6 nM (active)
same,GI50,A549,63.4 nM (active)
same,GI50,LOX IMVI,< 12.5 nM (active)
same,GI50,SF-268,< 11.9 nM (active)
same,GI50,LXFL 529,< 12.1 nM (active)
same,GI50,NCI/ADR-RES,427 nM (active)
same,GI50,HCT-116,< 10 nM (active)
same,GI50,HL-60,41.6 nM (active)
same,GI50,KM12,31.3 nM (active)
same,GI50,SF-295,31.2 nM (active)
same,GI50,OVCAR-3,108 nM (active)
same,GI50,HT-29,< 16.8 nM (active)
same,GI50,MDA-MB-435,31.3 nM (active)
same,GI50,KM-20L2,56.8 nM (active)
same,GI50,SNB-78,39.4 nM (active)
same,GI50,HOP-18,152 nM (active)
same,GI50,DMS-273,< 10 nM (active)
same,GI50,786-0,< 12.3 nM (active)
same,GI50,K562,< 15.4 nM (active)
same,GI50,ACHN,39.9 nM (active)
same,GI50,NCI-H226,20.1 nM (active)
same,GI50,UACC-62,20.8 nM (active)
same,GI50,M19-MEL,16.6 nM (active)
same,GI50,XF498,< 11.6 nM (active)
same,GI50,RPMI-8226,< 10 nM (active)
same,GI50,SK-MEL-28,29 nM (active)
same,GI50,MDA-MB-231,109 nM (active)
same,GI50,UACC-257,65.8 nM (active)
same,GI50,T47D,26.6 nM (active)
same,GI50,NCI-H460,< 12.2 nM (active)
same,GI50,SW-620,10.2 nM (active)
same,GI50,COLO 205,45.6 nM (active)
same,GI50,MDA-N,74.3 nM (active)
same,GI50,IGROV-1,< 19.7 nM (active)
same,GI50,CCRF-CEM,< 23.6 nM (active)
same,GI50,SK-MEL-2,10.8 nM (active)
same,GI50,BT-549,19.2 nM (active)
same,GI50,SK-MEL-5,31 nM (active)
same,GI50,MOLT-4,< 24.3 nM (active)
same,GI50,SNB-75,31.3 nM (active)
same,GI50,PC-3,24.6 nM (active)
same,GI50,NCI-H522,< 10 nM (active)
same,GI50,MCF7,< 10 nM (active)
same,GI50,OVCAR-5,270 nM (active)
same,GI50,TK-10,64.3 nM (active)
same,GI50,HCT-15,92.5 nM
same,GI50,RXF 393,< 18.4 nM (active)
same,GI50,Malme-3M,< 10.7 nM (active)
same,GI50,DMS-114,22.9 nM (active)
same,GI50,NCI-H23,26.9 nM (active)
same,GI50,DU-145,187 nM (active)
same,GI50,SNB-19,18.6 nM (active)
same,GI50,A498,< 10 nM (active)
same,GI50,U-251,< 10 nM (active)
same,GI50,HCC 2998,110 nM (active)
